{
  "source": "paper PMC9837035",
  "about": "(Nature Communications, 2023)",
  "key": {"[1]": {"tested_on": "ZBTB7A occupancy at the β-globin locus", "test": "ChIP-qPCR with antibody against ZBTB7A in HUDEP-2 cells", "type": "cell-based, human", "parameters": "ChIP-qPCR, antibody against ZBTB7A: scale not given here", "conditions": "for occupancy of ZBTB7A: HUDEP-2, 4 days", "protocol": "A total of 0.5–1 × 10^6 cells were cross-linked with 1% formaldehyde for 10 min at room temperature and the reaction was quenched with 250 mM glycine. Cross-linked cells were then lysed with buffer 1 (15 mM Tris-HCl (pH 7.5), 60 mM KCl, 15 mM NaCl, 5 mM MgCl2, 0.1 mM EGTA, 300 mM sucrose, […], 1 mM phenylmethanesulfonyl fluoride (PMSF), 0.5% NP40) and incubated on ice for 10 min. After centrifugation, the pellet was re-suspended in buffer 2 (15 mM Tris-HCl (pH 7.5), 60 mM KCl, 15 mM NaCl, 5 mM MgCl2, 0.1 mM EGTA, 1.2 M sucrose, […], 1 mM PMSF). After centrifugation, the pellet was then re-suspended in MNase buffer (50 mM Tris-HCl (pH 7.5), 1 mM CaCl2, 4 mM MgCl2, 320 mM sucrose, 1 mM PMSF) and digested with 100 U of micrococcal nuclease (Takara) at 37 °C for 15 min. After the reaction was quenched with 20 mM EDTA, the supernatants were incubated with antibodies (anti-H3K9me2 (1:100), Abcam, ab1220; anti-H3K9ac (1:100), Active Motif, 39917; Goat anti-IgG (H + L) (1:100), Jackson Immunoresearch; anti-BCL11A (1:100), Novus Biologicals, NB600-261; anti-ZBTB7A (1:100), Thermo Fisher Scientific, eBioscience (13E9); anti-CHD3 (1:100), Novus Biologicals, NB-100-60412; anti-CHD4 (1:100), abcam, ab240640) and Protein A/G PLUS-Agarose (Santa Cruz Biotechnology) overnight at 4 °C. Beads were washed sequentially once with the following buffers: wash buffer A (50 mM Tris-HCl (pH 7.5), 75 mM NaCl, 10 mM EDTA, 0.01% NP40), wash buffer B (50 mM Tris-HCl (pH 7.5), 100 mM NaCl, 10 mM EDTA, 0.01% NP40), wash buffer C (50 mM Tris-HCl (pH 7.5), 175 mM NaCl, 10 mM EDTA, 0.01% NP40). After treatment with proteinase K in buffer 4 (20 mM Tris-HCl (pH 8.0), 10 mM EDTA, 400 mM NaCl, 0.5% SDS) at 56 °C overnight, DNA was purified using the FastGene Gel/PCR Extraction Kit (Nippon Genetics). The samples were analyzed by qPCR. Primers are listed in Supplementary Table 10. ChIP-seq experiments were performed by GENEWIZ. Tracks were visualized using the integrative genome viewer. ChIP-seq analysis were analyzed Cutadapt (V1.9.1) for QC, FastQC (V0.10.1) for QC assessment, Bowtie (V2.1.0) for mapping, strand cross-correlation (SCC) for ChIP quality assessment, MACS2 for peak calling, and R package ChIPpeakAnno for Peak annotated."}, "[2]": {"tested_on": "HbF in CD34+-derived cells", "test": "Flow cytometry of HbF-expressing CD34+-derived cells", "type": "cell-based, human", "protocol": "For the analysis of HbF expression, HUDEP-2 cells or cells differentiated from human CD34 + progenitor cells were fixed in 0.05% glutaraldehyde for 10 min, then washed two times with PBS containing 2% FBS (PBS/2% FBS) and permeabilized with 0.1% Triton X-100 (prepared in PBS/2% FBS; Life Technologies) for 5 min. After washing with PBS/2% FBS two times, cells were stained with allophycocyanin (APC)-conjugated HbF antibody (1:1, Invitrogen, MHFH05). One million cells were incubated with the HbF–APC antibody for 30 min in the dark at 4 °C. Cells were washed twice with PBS/2% FBS, then suspended in 0.2 ml PBS/2% FBS and analyzed using a FACSCalibur (Becton Dickinson). To assess erythroid differentiation, hematopoietic cells differentiated from human CD34 cells were stained with FITC-conjugated CD45 antibody (1:1, Becton Dickinson, 555482) and APC-conjugated glycophorin A antibody (1:20, Becton Dickinson, 551336). Stained cells were suspended in 0.2 ml PBS/2% FBS containing 1 μg/ml propidium iodide (Sigma) and analyzed by FACSCalibur. The results of flow cytometer were further analyzed by FlowJo software (Becton Dickinson)."}, "SUV420H1TV2": {"biological_target": "T1, SUV420H1TV2 (Homo sapiens, UniProt Q4FZB7)", "T1 construct": "purchased Reaction Biology", "T1 sequence (Q4FZB7 1-393 isoform Q4FZB7-2)": "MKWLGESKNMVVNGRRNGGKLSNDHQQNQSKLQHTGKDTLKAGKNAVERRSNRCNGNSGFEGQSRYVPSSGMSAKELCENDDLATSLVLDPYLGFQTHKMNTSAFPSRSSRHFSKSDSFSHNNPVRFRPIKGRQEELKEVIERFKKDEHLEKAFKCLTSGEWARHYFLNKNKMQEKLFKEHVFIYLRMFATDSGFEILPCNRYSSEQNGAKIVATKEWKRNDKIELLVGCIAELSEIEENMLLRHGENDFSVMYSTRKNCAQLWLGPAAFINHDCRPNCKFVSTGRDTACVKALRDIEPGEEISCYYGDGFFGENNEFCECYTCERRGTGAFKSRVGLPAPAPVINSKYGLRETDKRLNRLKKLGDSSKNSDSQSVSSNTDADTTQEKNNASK", "test": "Radioisotope-based methyltransferase assay (selectivity)", "type": "biochemical"}, "SET1b": {"biological_target": "T2, SET1b (Homo sapiens, UniProt Q9UPS6)", "T2 construct": "purchased Reaction Biology", "test": "Radioisotope-based methyltransferase assay (selectivity)", "type": "biochemical"}, "SET7/9": {"biological_target": "T3, SET7/9 (Homo sapiens, UniProt Q8WTS6)", "T3 construct": "purchased Reaction Biology", "T3 sequence (Q8WTS6 1-366)": "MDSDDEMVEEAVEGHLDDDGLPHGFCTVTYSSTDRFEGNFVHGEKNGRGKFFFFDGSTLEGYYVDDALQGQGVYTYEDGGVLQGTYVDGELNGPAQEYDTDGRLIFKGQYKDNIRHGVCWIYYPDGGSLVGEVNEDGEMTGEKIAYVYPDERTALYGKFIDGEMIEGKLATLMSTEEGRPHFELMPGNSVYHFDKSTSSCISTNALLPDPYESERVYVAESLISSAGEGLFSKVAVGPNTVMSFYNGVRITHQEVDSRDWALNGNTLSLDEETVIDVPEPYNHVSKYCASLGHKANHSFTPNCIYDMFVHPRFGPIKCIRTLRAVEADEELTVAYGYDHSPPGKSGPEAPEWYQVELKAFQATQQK", "test": "Radioisotope-based methyltransferase assay (selectivity)", "type": "biochemical"}},
  "note": "Where “and” joins values, the source holds several entries; their conditions need not be identical. Equal values may be shown once. Read-outs that look alike come from different tables or passages of the source.",
  "data": [
    {"compound": "NC(=O)NO", "note": "[Hydroxyurea, hydroxyurea]", "values": [
      {"measurement": "ChIP-qPCR, antibody against ZBTB7A", "setting": "[1]; BGLT3 locus, HUDEP-2 cells treated with hydroxyurea, replicates 1a-3b", "value": "0.2555 and 0.2878 and 0.489 and 0.1677 and 0.3852 and 0.1554"},
      {"measurement": "ChIP-qPCR, antibody against ZBTB7A", "setting": "[1]; HS1, HUDEP-2 cells treated with hydroxyurea, replicates 1a-3b", "value": "0.1321 and 0.1347 and 0.8135 and 0.9678 and 0.3385 and 0.3161"},
      {"measurement": "ChIP-qPCR, antibody against ZBTB7A", "setting": "[1]; HS2, HUDEP-2 cells treated with hydroxyurea, replicates 1a-3b", "value": "0.5755 and 1.852 and 0.7582 and 2.507 and 0.9285 and 0.344"},
      {"measurement": "ChIP-qPCR, antibody against ZBTB7A", "setting": "[1]; HS3, HUDEP-2 cells treated with hydroxyurea, replicates 1a-3b", "value": "3.3 and 2.712 and 3.199 and 3.147 and 3.201 and 2.452"},
      {"measurement": "ChIP-qPCR, antibody against ZBTB7A", "setting": "[1]; HS4, HUDEP-2 cells treated with hydroxyurea, replicates 1a-3b", "value": "0.5937 and 0.6906 and 0.5556 and 0.0004431 and 0.6456 and 0.709"},
      {"measurement": "occupancy of ZBTB7A", "setting": "[1]", "value": "unchanged"},
      {"measurement": "ChIP-qPCR, antibody against ZBTB7A", "setting": "[1]; β-globin promoter, HUDEP-2 cells treated with hydroxyurea, replicates 1a-3b", "value": "0.3506 and 0.4318 and 0.349 and 0.2415 and 0.313 and 0.6542"},
      {"measurement": "ChIP-qPCR, antibody against ZBTB7A", "setting": "[1]; γ-globin promoter, HUDEP-2 cells treated with hydroxyurea, replicates 1a-3b", "value": "0.3068 and 0.4102 and 0.3595 and 0.2786 and 0.238 and 0.2672"},
      {"measurement": "ChIP-qPCR, antibody against ZBTB7A", "setting": "[1]; δ-globin promoter, HUDEP-2 cells treated with hydroxyurea, replicates 1a-3b", "value": "0.2368 and 0.1088 and 0.2161 and 0.2308 and 0.337 and 0.2535"},
      {"measurement": "HbF induction compared with RK-701", "setting": "[2]", "value": "less effective in inducing HbF than RK-701"},
      {"measurement": "Percentage of HbF-expressing cells", "setting": "[2]; day 11, 10 μM, listed as HU", "value": "32.8% and 45.2% and 37.4%"},
      {"measurement": "Percentage of HbF-expressing cells", "setting": "[2]; day 11, 50 μM, listed as HU", "value": "63% and 65.2% and 61.5%"}
    ]},
    {"compound": "Cc1c(C(=O)NC(CCC2CC2)C(=O)Nc2ccc(C#N)cc2)[nH]c2c1C(=O)CC(C)(C)C2", "note": "(centres unmarked) [RK-701]", "values": [
      {"measurement": "ChIP-qPCR, antibody against ZBTB7A", "setting": "[1]; BGLT3 locus, HUDEP-2 cells treated with RK-701, replicates", "value": "0.4785 and 0.7839 and 0.6066 and 0.47 and 0.614 and 0.4023"},
      {"measurement": "ChIP-qPCR, antibody against ZBTB7A", "setting": "[1]; HS1, HUDEP-2 cells treated with RK-701, replicates", "value": "0.3678 and 0.05637 and 0.7128 and 0.4479 and 0.1475 and 0.1331"},
      {"measurement": "ChIP-qPCR, antibody against ZBTB7A", "setting": "[1]; HS2, HUDEP-2 cells treated with RK-701, replicates", "value": "1.5097 and 1.657 and 5.746 and 3.531 and 2.263 and 8.084 and 5.171"},
      {"measurement": "ChIP-qPCR, antibody against ZBTB7A", "setting": "[1]; HS3, HUDEP-2 cells treated with RK-701, replicates", "value": "0.5878 and 1.255 and 2.352 and 2.616 and 1.402 and 1.245 and 2.743"},
      {"measurement": "ChIP-qPCR, antibody against ZBTB7A", "setting": "[1]; HS4, HUDEP-2 cells treated with RK-701, replicates", "value": "0.4061 and 0.5382 and 0.8901 and 0.4009 and 0.2486"},
      {"measurement": "occupancy of ZBTB7A", "setting": "[1]", "value": "significantly reduced"},
      {"measurement": "ChIP-qPCR, antibody against ZBTB7A", "setting": "[1]; β-globin promoter, HUDEP-2 cells treated with RK-701, replicates", "value": "0.04529 and 0.1645 and 0.1359 and 0.07664 and 0.1559 and 0.07017 and 0.04448 and 0.1674 and 0.1136"},
      {"measurement": "ChIP-qPCR, antibody against ZBTB7A", "setting": "[1]; γ-globin promoter, HUDEP-2 cells treated with RK-701, replicates", "value": "0.04733 and 0.01872 and 0.01192 and 0.1001 and 0.03782 and 0.06607 and 0.08612"},
      {"measurement": "ChIP-qPCR, antibody against ZBTB7A", "setting": "[1]; δ-globin promoter, HUDEP-2 cells treated with RK-701, replicates", "value": "0.02578 and 0.1044 and 0.02059 and 0.06153 and 0.0851 and 0.07628"},
      {"measurement": "IC50", "setting": "SUV420H1TV2; SUV420H1TV2, 1 μM SAM", "value": "> 100", "unit": "µM"},
      {"measurement": "IC50", "setting": "SUV420H1TV2; SUV420H1TV2, RK-701 in duplicate", "value": "> 100", "unit": "µM"},
      {"measurement": "IC50", "setting": "SET1b; 1 μM SAM", "value": 48.6, "unit": "µM"},
      {"measurement": "IC50", "setting": "SET1b; RK-701 in duplicate", "value": "47.6 µM and 49.6 µM"},
      {"measurement": "IC50", "setting": "SET7/9; SET7/9, 1 μM SAM", "value": "> 100", "unit": "µM"},
      {"measurement": "IC50", "setting": "SET7/9; SET7/9, RK-701 in duplicate", "value": "> 100", "unit": "µM"},
      {"measurement": "Percentage of HbF-expressing cells", "setting": "[2]; day 11, 0.01 μM", "value": "22.7% and 27% and 19%"},
      {"measurement": "Percentage of HbF-expressing cells", "setting": "[2]; day 11, 0.03 μM", "value": "41.2% and 51.3% and 42.4%"},
      {"measurement": "Percentage of HbF-expressing cells", "setting": "[2]; day 11, 0.1 μM", "value": "71.3% and 76.8% and 67.7%"},
      {"measurement": "Percentage of HbF-expressing cells", "setting": "[2]; day 11, 0.3 μM", "value": "83.5% and 83.7% and 81.1%"},
      {"measurement": "Percentage of HbF-expressing cells", "setting": "[2]; day 11, 1 μM", "value": "84.2% and 87.4% and 83.5%"},
      {"measurement": "Percentage of HbF-expressing cells", "setting": "[2]; day 11, 3 μM", "value": "84.8% (2×) and 85.2%"}
    ]},
    {"compound": "Nc1ncnc2c1ncn2[C@@H]1O[C@H](CSCC[C@H](N)C(=O)O)[C@@H](O)[C@H]1O", "note": "[SAH, S-(5'-Adenosyl)-L-homocysteine, reference compound]", "values": [
      {"measurement": "IC50", "setting": "SUV420H1TV2", "value": 126, "unit": "µM"},
      {"measurement": "IC50", "setting": "SET1b; 1 μM SAM", "value": 5.3, "unit": "µM"},
      {"measurement": "IC50", "setting": "SET1b; RK-701 in duplicate", "value": 5.3, "unit": "µM"},
      {"measurement": "IC50", "setting": "SET7/9; SET7/9, 1 μM SAM", "value": 81.8, "unit": "µM"},
      {"measurement": "IC50", "setting": "SET7/9; SET7/9, RK-701 in duplicate", "value": 81.8, "unit": "µM"}
    ]}
  ]
}
